Data: ChEMBL document CHEMBL3832039, “DailyMed|setid=8e4382de-df78-4821-b11e-c423442a7ff8 | DIOVAN - valsartan tablet|PD-Rx Pharmaceuticals, Inc”

Columns and labels:
Type in all cases: ADME, organism-based
[1] = (§1) Pharmacokinetic parameters for Valsartan following oral or intravenous administration of Valsartan solution.; details: human, in vivo, dosed compound id 15, dosed compound name VALSARTAN, tissue Plasma
[2] = test system: Homo sapiens; assay: as §1; details: in vivo, po, dosed compound id 15, dosed compound name VALSARTAN
[3] = Apparent clearance of Valsartan following oral administration of 40 to 160 mg Valsartan, twice a day, to heart failure patients.; details: human, in vivo, dose Range 40 to 160 mg, dosed compound id 15, dosed compound name VALSARTAN, regimen Every 12h, tissue Plasma, read-out: CL(app) (converted)

Q: For `CCCCC(=O)N(Cc1ccc(-c2ccccc2-c2nnn[nH]2)cc1)[C@H](C(=O)O)C(C)C` [VALSARTAN], which Tmax ([1]; po) is on record?
A: 2 to 4 h

Q: And the clearance ([1]; route iv)?
A: 33.3 mL/min

Q: What about the half-life ([1]; route iv) of the same molecule?
A: 6 h

Q: What about the CL renal ([1]; route iv, read-out: CL_renal (converted)) of the same molecule?
A: 10.3 mL/min

Q: What about the Vd ([1]; route iv, read-out: Vss) of the same molecule?
A: 17 L

Q: And the Excretion ([2]; tissue Feces)?
A: 83%

Q: And the Excretion ([2]; tissue Urine)?
A: 13%

Q: And the CL/F [3]?
A: 75 mL/min
